Legend:
[1] = tested on: HCT15 xenograft model of colorectal cancer; assay: HCT15 xenograft model; assay type: in vivo, mouse; details: Apomab 7.3 10 mg/kg, CPT-11 80 mg/kg, alone or combined; FIG. 26
[2] = tested on: human Colo 205 colon carcinoma xenograft; assay: Human Colo 205 carcinoma xenograft model, tumor growth delay (Example 10); details: for TGD: maximum possible 193%, all treatments i.p.; for MTV(n), median tumor volume on Day 61: n = mice remaining on Day 61
Procedure: The animals were fed ad libitum water and NIH 31 Modified and Irradiated Lab Diet® consisting of 18.0% crude protein, 5.0% crude fat, and 5.0% crude fiber. The mice were housed on irradiated ALPHA-Dri® Bed-O'Cobs® Laboratory Animal Bedding in static microisolators on a 12-hour light cycle at 21-22° C. and 40-60% humidity.
Human Colo 205 colon carcinoma cells were cultured in RPMI 1640 medium containing 100 units/mL penicillin G sodium, 100 μg/mL streptomycin sulfate, 0.25 μg/mL amphotericin B, and 25 μg/mL gentamicin. The medium was supplemented with 10% heat-inactivated fetal bovine serum, 2 mM glutamine, and 1 mM sodium bicarbonate. The tumor cells were cultured in tissue culture flasks in a humidified incubator at 37° C., in an atmosphere of 5% CO2 and 95% air.
The human Colo 205 carcinoma cells used for implantation were harvested during log phase growth and resuspended in 50% matrigel at 5×10^6 cells/mL. Each mouse was injected s.c. in the right flank with 1×10^6 cells (0.2 mL cell suspension). Tumors were monitored twice weekly and then daily as their volumes approached 100-300 mm^3 On Day 1 of the study, animals were sorted into treatment groups with tumor sizes of 108.0-220.5 mm^3 and a group mean tumor size of 149.8 mm^3 Tumor weight may be estimated with the assumption that 1 mg is equivalent to 1 mm^3 of tumor volume.
The test materials were provided ready for dosing. The dosing solutions were stored at 4° C.
Mice were sorted into six groups with ten mice per group. All treatments were administered intraperitoneally (i.p.).
Apo2L.0 and its vehicle were each administered once daily on Days 1-5 (qd×5). […] Control Group 1 mice were treated with the vehicle for Apo2L.0. […] In all groups, the dosing volume of 0.2 ml/20 g mouse was scaled to the body weight of each animal.

[3] = tested on: SKMES-1 human NSCLC xenograft; assay: SKMES-1 human NSCLC xenograft, tumor growth delay (Example 9); details: for median TTE: 1500 mm^3 endpoint volume, 45-day study, control median TTE 18.9 days; for TGD, % of control / TGD: versus vehicle control; for TGD, % of control: maximum achievable 138%; for TGD: maximum achievable 26.1 days
Excerpt: Xenografts were initiated from SKMES-1 lung tumors maintained by serial transplantation at PRC. Each test mouse received a 1 mm^3 SKMES-1 tumor fragment implanted subcutaneously in the right flank, and tumor growth was monitored. Thirteen days later, designated as Day 1 of the study, individual tumor volumes ranged from 63 to 144 mm^3, and the animals were sorted into four groups each consisting of ten mice and two groups each consisting of nine mice. Mean tumor volumes were 93 to 95 mm^3.
All test materials were provided ready to dose at 0.1 mL per 20 g body weight (5 mL/kg), and were stored at −80° C. upon receipt. The test materials were thawed on the first day of dosing, kept on ice during dosing, then subsequently stored at 4° C. Carboplatin ([…] ® injection, Bristol Myers Squibb) was diluted with 5% dextrose in water (D5W) to yield the desired dose in a volume of 0.2 mL per 10 g body weight (10 mL/kg). Paclitaxel (Natural Pharmaceuticals, Inc.) was diluted with D5W on each day of dosing from a 10× stock solution to yield a vehicle consisting of 5% ethanol and 5% Cremophor EL in 90% D5W (5% EC vehicle), so that the desired dose was delivered in 0.1 mL per 20 g body weight.
Group 1 (vehicle control) mice received vehicle administered intraperitoneally once daily for five days (i.p. qd×5), and served as tumor growth controls. […] Each dose was administered in the volume indicated in the previous section, and was scaled to the body weight of the animal.

[4] = tested on: Colo 205 human colon carcinoma xenografts; assay: Colo 205 human colon carcinoma xenografts in nude mice, tumor growth delay (Example 8); assay type: in vivo, mouse; details: endpoint tumor volume 1000 mm^3; for tumor growth delay (TGD): Apo2L.0 60 mg/kg i.p. 5/2/5, Apomab 7.3 3 mg/kg i.v. Days 1, 8, B20-4.1 10 mg/kg i.p. Days 1 and 8; for tumor growth delay (TGD), percentage of control median TTE: same regimens
Procedure: Xenografts were initiated from cultured Colo 205 human colon carcinoma cells. […] On the day of tumor cell implant, Colo 205 cells were harvested and resuspended in 50% Matrigel matrix (BD Biosciences) in PBS at a concentration of 5×10^6 cells/mL.
The test materials were kept on ice during dosing, and dosing solutions were subsequently stored at 4° C.
Tumors were measured twice weekly using calipers. […] The time to endpoint (TTE) for each mouse was calculated from the following equation: […]
Where b is the intercept and m is the slope of the line obtained by linear regression of a log-transformed tumor growth data set. The data set was comprised of the first observation that exceeded the study endpoint volume and the three consecutive observations that immediately preceded the attainment of the endpoint volume. […] Animals suffering treatment-related death or non-treatment related death due to metastasis were assigned a TTE value equal to the day of death. Animals suffering non-treatment related death or death of unknown causes were excluded from the TTE calculations.
Treatment outcome was evaluated by tumor growth delay (TGD), which is defined as the increase in the median time to endpoint (TTE) in the treatment group compared to the control group: TGD=T−C,
Treatment may cause partial regression (PR) or complete regression (CR) of tumor in an animal In a PR response, the tumor volume is 50% or less of its Day 1 volume for three consecutive measurements during the course of the study, and equal to or greater than 13.5 mm^3 for one or more of these three measurements. In a CR response, the tumor volume is less than 13 5 mm^3 for one or more of these three measurements during the course of the study. An animal with a CR response at the termination of the study is additionally classified as a tumor-free survivor (TFS). Regression responses were monitored and recorded.
The Logrank test was use to analyze the significance of the differences between the TTE values of treated and control groups. Two-tailed statistical analyses were conducted at significance level P=0.05, with results deemed significant at 0.01 P 0.05, and highly significant at P<0.01.
Median tumor growth curves show group median tumor volumes as a function of time.

[5] = tested on: Colo 205 human colon carcinoma xenograft; assay: Colo 205 xenograft athymic nude mouse model (Example 2); assay type: in vivo
Procedure: All mice were ear-tagged for identification. Once the tumor volume was approximately 100-200 mm^3, the Colo 205 tumor-bearing mice were randomly grouped and treatment was administered.
In some instances, 3 or 4 mice were euthanized from the vehicle and 10 mg/kg groups, and serum and tumors were collected at 5 minutes, 24 hours or 48 hours post treatment for serum drug concentration and tumor histology studies. In the remaining mice, tumor measurements were taken twice a week for the first 2 weeks, then once a week for another 4 weeks.

[6] = tested on: Colo 205 xenograft; assay: Colo 205 xenograft model, Apomabs 23.3, 25.3 and 7.3 (Example 7); assay type: in vivo, mouse; details: single 3 or 10 mg/kg i.v. dose; 25-day data; FIG. 33
Procedure: All mice were ear tagged for identification. […] Group 4 was administered a single 3 mg/kg/mouse i.v. dose of Apomab 23.3. Group 5 was administered a single […] i.v. dose of Apomab 23.3. […] 24 hours post treatment all mice were weighed. Tumors were measured 2×/week for the first 2 weeks and then weekly for the next 4 weeks. After 6 weeks or when the tumors reached a size of >1000 mm^3, the mice were sacrificed.

[7] = tested on: BxPC3 xenograft; assay: BxPC3 xenograft model of human pancreatic adenocarcinoma; assay type: in vivo, mouse; details: Apomab 7.3 10 mg/kg i.v., gemcitabine 160 mg/kg ip; FIG. 29
[8] = tested on: H2122 xenograft; assay: H2122 xenograft model of human lung cancer; assay type: in vivo, mouse
Procedure: All mice were ear tagged for identification.
All mice were ear tagged for identification. […] Any mice excluded from the treatment groups were euthanized.
Group A was a vehicle-treated control group (0.5 M arginine succinate, 20 mM Tris, 0.02% Tween 20, pH 7.2). […] 48 hours following the first treatment, three mice from each of Groups B, C and D were euthanized, and their tumors were collected as follows. One tumor was preserved in 10% formalin for histology study. One tumor was frozen in liquid nitrogen for RNA studies. One tumor was frozen in liquid nitrogen for Western blot. Tumor measurements were taken 2×/week for the first 2 weeks then 1×/week for the next 4 weeks.

[9] = tested on: Colo205 human colon carcinoma cell line; assay: Bioassay: tumor cell growth inhibition/killing (AlamarBlue); assay type: cell-based; details: Apomab framework variants; last column of Table 12
Procedure: Bioassay: tumor cell growth inhibition/killing. The apparent potency of each antibody variant was determined in an in vitro tumor cell-killing assay. Colo205 human colon carcinoma cell line was cultured in RPMI medium containing 10% fetal bovine serum. […] Cells (20,000/well) were then added to the plates. The plates were incubated at 37° C. for a total of 48 h. AlamarBlue was added to the wells for the last 3 h of incubation. Fluorescence was read using a fluorometer with excitation at 530 nm and emission of 590 nm. The data were analyzed using a four parameter curve-fitting program.

Molecule	anticancer activity [1]	TGD [2]	MTV(n), median tumor volume on Day 61 [2]	LTTFS (long-term tumor-free survivor) ([2]; ten mice per group)	median TTE [3]	TGD, % of control [3]	TGD [3]	tumor growth delay (TGD) [4]	tumor growth delay (TGD), percentage of control median TTE [4]	anticancer activity [6]	Bioassay activity with crosslinking [9]	also measured
CCc1c2c(nc3ccc(OC(=O)N4CCC(N5CCCCC5)CC4)cc13)-c1cc3c(c(=O)n1C2)COC(=O)[C@]3(O)CC [CPT-11, irinotecan, reference compound]	effective when administered alone	–	–	–	–	–	–	–	–	–	–	–
Apo2L.0: soluble form of Apo-2 ligand (TRAIL), 114-281 extracellular domain sequence	–	158%	1,210 mm^3	One	22.9 days	21%	4.0 days	28.4 days	190%	–	–	median TTE ([2]; 1500 mm^3 endpoint volume, 61-day study, control median TTE 20.8 days): 53.6 days; T-C ([2]; versus vehicle control): 32.8 days
Apomab 7.3: anti-DR5 IgG: heavy chain TH7 (G33A, N53Q, L102Y) + light chain TL3 (Q24S, K51A, R91A); SEQ ID NOS: 18 and 20	effective when administered alone	193%	776 mm^3	One	2.0 days	38%	7.1 days	53.0 days	355%	significant anticancer activity	–	reversal of efficacy during test period ([5]; 1 mg/kg and 3 mg/kg doses, 20-day test period, FIG. 23): does not show any reversal during the 20-day test period; reduction of tumor volume ([5]; 1 mg/kg and 3 mg/kg doses, FIG. 23): effective in reducing tumor volume; anticancer activity compared with Apomabs 23.3 and 25.3 ([5]; FIG. 24): far exceeded the activity of Apomabs 23.3 and 25.3; reduction of (mean) tumor volume ([5]; single intraperitoneal dose 3 or 10 mg/kg, FIGS. 21 and 22, efficacy essentially the same as 16E2 version 1): highly efficient in reducing tumor volume; 61-day survivors ([2]; ten mice per group): six; PR responses ([2]; ten mice per group): three; transient CR response ([2]; ten mice per group): one; anticancer activity [7]: far superior to the efficacy of gemcitabine; dose-response efficacy ([8]; 1, 3 and 10 mg/kg single IV dose, FIG. 32): efficacious in all doses tested; mice with complete response (CR) ([8]; 6 mice/group, without any reversal during the 70-day treatment period): All six; regression responses ([3]; mouse, in vivo): No regression responses were documented
Apomab 18.3: Apomab version with heavy chain framework residues E LVQ K	–	–	–	–	–	–	–	–	–	–	None	–
Apomab 25.3: Apomab version with heavy chain framework residues Q LVQ K	–	–	–	–	–	–	–	–	–	significant anticancer activity	–	–
Apomab 27.3: Apomab version with heavy chain framework residues E VER K	–	–	–	–	–	–	–	–	–	–	none	–
